Laboratory results from patent US20010049128A1, “PROCESS FOR THE FERMENTATIVE PRODUCTION OF L-AMINO ACIDS” (priority 1998, published 2001).
Read-outs that look alike come from different tables or passages of the source.

Key:
[1] = system: Corynebacterium glutamicum DSM5715; conditions: Proline 0.5 g/l; 72 hours at 33° C., 150 rpm; NaCl 5 g/l
Method: A culture medium containing 2.5 g/l NaCl, 10 g/l peptone and 10 g/l yeast extract was adjusted to pH 7.4 with sodium hydroxide and, after heat sterilisation, 40 ml of 50% glucose solution per liter was added thereto. 47 ml portions of the medium were inoculated with Corynebacterium glutamicum DSM5715 with a needle on an agar plate with brain-heart agar as nutrient medium incubated for 48 hours and were shaken at 150 rpm for 20 hours at 33° C. in an RC-1-TK incubator from the firm Infors AG (Bottmingen, Switzerland). The cells were then washed with sterile physiological saline. The cells were separated by centrifugation for 20 minutes at 4000 rpm in a Beckmann centrifuge J 6B.
For the main cultivation in shaking flasks, 40 g (NH4)2SO4, 0.5 g KH2PO4, 0.5 g K2HPO4, 0.25 g MgSO4.7H2O and 0.3 g L-leucine were weighed in a 1 l beaker and 750 ml distilled water was added thereto. […]
The cultivation took place over 72 hours at 33° C. and 150 rpm in an RC-1-TK incubator from the firm Infors AG (Bottmingen, Switzerland). Subsequent to this, the optical density (OD) (photometer LP2W from the firm Dr. Lange, Berlin, Germany) and the concentration of L-amino acid formed in the culture suspension were determined. Amino acids were analysed by ion-exchange chromatography and post-column reaction with ninhydrin detection, using an amino acid analyser from the firm Eppendorf BioTronik (Hamburg, Germany).

[2] = system: Brevibacterium flavum DSM5399; conditions: 72 hours at 30° C., 300 rpm
Method: A culture medium containing 100 g/l saccharose, 12 g/l (NH4)2SO4, 100 ml/l soya flour hydrolysate, 0.5 g/l K2HPO4, 0.5 g/l KH2PO4, 0.25 g/l MgSO4.7H2O, 5.0 g/l NaCl and 1 ml of a solution of trace salts was adjusted to pH 7.0 and autoclaved. The solution of trace salts consisted of 1.0 g FeSO4.7H2O, 1.0 g MnSO4.H2O, 0.1 g ZnSO4.7H2O, 0.02 g CuSO4 and 0.002 g NiCl2.6H2O, which was made up to 100 ml with demineralised water and a few drops of a 1N HCl solution.
1 ml each of a 0.2 mg/l biotin and thiamine stock solution, which had been sterilised by filtration, were added to the culture medium. 10.0 g/l CaCO3 was sterilised together with the shaking flasks. In the culture medium, the proline concentration resulting from the introduction of soya flour hydrolysate was 0.34 g/l. The specified concentration of proline, obtained from a proline stock solution, was added to the medium after having been sterilised by filtration.
An agar plate with brain-heart agar as nutrient medium, which had been incubated for 72 hours with DSM5399, was suspended in 10 ml of sterile physiological saline. 10 ml portions of cultivation medium were placed in 100 ml Erlenmeyer shaking flasks and inoculated with 100 μl of the withdrawn cell suspension. The cultivation took place over 72 hours at 30° C. and 300 rpm. Subsequent to this, as specified in Example 1, the OD was determined at a wavelength of 660 nm and the threonine concentration was measured.

[3] = system: Brevibacterium flavum DSM5399; conditions: Proline 0.1 g/l; 72 hours at 30° C., 300 rpm
Method: The solution of trace salts consisted of 1.0 g FeSO4.7H2O, 1.0 g MnSO4.H2O, 0.1 g ZnSO4.7H2O, 0.02 g CuSO4 and 0.002 g NiCl2.6H2O, which was made up to 100 ml with demineralised water and a few drops of a 1N HCl solution.
1 ml each of a 0.2 mg/l biotin and thiamine stock solution, which had been sterilised by filtration, were added to the culture medium. 10.0 g/l CaCO3 was sterilised together with the shaking flasks.
10 ml portions of cultivation medium were placed in 100 ml Erlenmeyer shaking flasks and inoculated with 100 μl of the withdrawn cell suspension. The cultivation took place over 72 hours at 30° C. and 300 rpm.

[4] = system: cells in media with inhibiting osmotic stress; conditions: cited from earlier work
[5] = Proline 0.34 g/l (resulting from soya flour hydrolysate, none added)

| Compound | Lysine [1] | OD 535 nm [1] | OD 660 nm [2, 5] | Threonine [2, 5] | OD 660 nm ([2]; Proline 0.66 g/l) | Threonine ([2]; Proline 0.66 g/l) | L-isoleucine [3] | OD 660 nm [3] | growth rate of the cells [4] | production of L-lysine [4] |
| --- | --- | --- | --- | --- | --- | --- | --- | --- | --- | --- |
| O=C(O)[C@@H]1CCCN1 [Proline, L-proline] | 29.4 g/L | 30.5 | 51.2 | 0.63 g/L | 52.6 | 1.29 g/L | 0.36 g/L | 52.0 | – | – |
| C[N+](C)(C)CC(=O)[O-] [glycine betaine] | – | – | – | – | – | – | – | – | stimulates the growth rate | increase in the production of L-lysine |
